Where “and” joins values, the source holds several entries; their conditions need not be identical. Equal values may be shown once.
Tests used:
[1] = UPLC-MS/MS quantification of EXE and its metabolites in urine of subjects taking EXE; format: in vivo, human; settings: for Urine Percentage of TEM (Mean ± S.E.): TEM = EXE + 17β-DHE + 17β-DHE-Gluc + 6-EXE-cys + 6-DHE-cys, calculated per subject, then mean of 132; for Urine concentration, Mean ± S.E. / Urine concentration, Range: n = 132 subjects; for Urine concentration, Mean ± S.E.: 25 mg EXE daily orally for at least 28 days, sampled 4-6 hours after pill; for Urine concentration, Range: 25 mg EXE daily orally, 4-6 hours after pill
Protocol: (§1) One hundred and thirty-two postmenopausal breast cancer patients (one Hispanic, two African Americans, two Asians, and 127 Caucasians; age range: 35–89 years) with ER+ breast tumors were recruited into this study from the Breast Oncology Clinic at the Penn State Hershey Cancer Institute. Approval was obtained from the Institutional Review Board at Penn State University with informed consent obtained from all subjects. Subjects took a single pill (25 mg) of EXE daily (orally) for at least 28 consecutive days and provided blood (10 ml) and urine (up to 50 ml) specimens between 4 and 6 hours after pill ingestion as described previously ([Luo et al., 2018]). Blood was separated by centrifugation at 1300g for 15 minutes at room temperature. Aliquoted plasma and buffy coat fractions of blood samples and aliquoted urine samples were stored at −80°C until analysis. As a control for EXE metabolism, specimens obtained from women not taking EXE who were recruited into other studies at Penn State University College of Medicine (Hershey, PA; n = 10) were also examined to exclude false positives ([Ashmore et al., 2013]).
For EXE metabolite analysis in urine, a 2.5-µl aliquot of each urine sample was first spiked with 2.5 µl of the same deuterium-labeled internal standard mixture described earlier. Ten microliters of 75% methanol was then added to extract EXE and its metabolites. After vortexing and subsequent centrifugation at 16,100g for 10 minutes at 4°C, 10 µl of the supernatant was transferred to a sample vial and mixed with 5 µl of water prior to analysis by UPLC-MS.
(§2) For the simultaneous quantification of EXE, 17β-DHE, 17β-DHE-Gluc, 6-EXE-cys, and 6-17β-DHE-cys, urine and plasma samples were prepared as described earlier. Using the same UPLC-MS system described earlier, UPLC was performed with solvent A (5 mM ammonium formate and 0.01% formic acid in water) and solvent B (100% acetonitrile) using the following conditions for both urine and plasma specimens: 0–1.5 minutes at 25% solvent B, a linear gradient to 52% solvent B for 1.5–2.5 minutes, 2.5–4.5 minutes at 52% solvent B, a linear gradient to 95% solvent B from 4.5 to 5 minutes, 5–9.5 minutes at 95% solvent B, followed by a linear gradient to initial conditions of 25% solvent B from 9.5 to 10 minutes. This was followed by a 1-minute run at 25% solvent B to equilibrate the column to initial conditions before the next sample injection. The flow rate was 0.4 ml/min from 0 to 5 minutes, 0.8 ml/min from 5 to 9.5 minutes, and back to 0.4 ml/min from 9.5 to 10 minutes. The injection volume of each prepared urine and plasma sample was 5 µl. The column temperature was 35°C. The Waters XEVO G2-S QTOF MS was operated in tandem mass spectrometry (MS/MS) mode, with the electrospray ionization probe operated in the positive-ion mode and a capillary voltage at 0.6 kV. The cone and desolvation gas flow rates were maintained at 50 and 800 l/h, respectively, and the collision gas flow rate was 0.1 l/h. The source and desolvation gas temperatures were 120°C and 500°C, respectively, and the dwell time for each ion was 300 ms.
The limits of quantification for EXE, 17β-DHE, 17β-DHE-Gluc, 6-EXE-cys, and 6-17β-DHE-cys were 2.1, 1.6, 1.2, 0.7, and 7.2 nM in plasma, respectively, and 2.1, 1.6, 6.3, 1.5, and 7.2 nM in urine, respectively. Standard curves were constructed by plotting the ratio of analyte peak area to peak area of the corresponding internal standard (described earlier) versus concentration of analyte standard. The concentrations of stock standards were 1000 ppm. A serial dilution of standards at concentrations ranging from 1.6 nM to 1.7 μM, 1.6 nM to 1.7 μM, 1.0 nM to 2.1 μM, 0.7 nM to 12 μM, and 4.6 nM to 2.4 μM was used to establish standard curves for EXE, 17β-DHE, 17β-DHE-Gluc, 6-EXE-cys, and 6-17β-DHE-cys, respectively. […]

[2] = UPLC-MS/MS quantification of EXE and its metabolites in plasma of subjects taking EXE; format: in vivo, human; settings: for Plasma Percentage of TEM (Mean ± S.E.): TEM = EXE + 17β-DHE + 17β-DHE-Gluc + 6-EXE-cys + 6-DHE-cys, calculated per subject, then mean of 132; for Plasma concentration, Mean ± S.E. / Plasma concentration, Range: n = 132 subjects; for Plasma concentration, Mean ± S.E.: 25 mg EXE daily orally for at least 28 days, sampled 4-6 hours after pill; for Plasma concentration, Range: 25 mg EXE daily orally, 4-6 hours after pill
Protocol: as §1
To quantify in vivo levels of EXE and its metabolites, the sample preparation method was modified from that described earlier for metabolite identification. For EXE metabolite analysis in plasma, a 2.5-µl aliquot of each plasma sample was first spiked with 2.5 µl of a mixture of deuterium-labeled internal standards in methanol [D3-EXE (0.17 μM), D3-17β-DHE (1.7 μM), 17β-OH-EXE-d3-17-O-β-D-glucuronide (0.52 μM), D3-6-EXE-cys (0.06 μM), and D3-6-17β-DHE-cys (0.25 μM)]. Twenty microliters of pure methanol was then added to extract EXE and its metabolites and to precipitate proteins. After vortexing and subsequent centrifugation at 16,100g for 10 minutes at 4°C, 15 µl of the supernatant was transferred to a sample vial and mixed with 15 µl of water prior to analysis by UPLC-MS.
as §2
The limits of quantification for EXE, 17β-DHE, 17β-DHE-Gluc, 6-EXE-cys, and 6-17β-DHE-cys were 2.1, 1.6, 1.2, 0.7, and 7.2 nM in plasma, respectively, and 2.1, 1.6, 6.3, 1.5, and 7.2 nM in urine, respectively. Standard curves were constructed by plotting the ratio of analyte peak area to peak area of the corresponding internal standard (described earlier) versus concentration of analyte standard. The concentrations of stock standards were 1000 ppm. […]

[3] = in vivo; cited from earlier work
[4] = ref Luo et al., 2018, cited from earlier work

Row | SMILES | Urine concentration range as printed in the discussion ([1]; female, human, in vivo) | Urine Percentage of TEM (Mean ± S.E.) ([1]; urine) | Urine concentration, Mean ± S.E. ([1]; urine) | Urine concentration, Range ([1]; urine) | Plasma Percentage of TEM (Mean ± S.E.) ([2]; plasma) | Plasma concentration, Mean ± S.E. ([2]; plasma) | Plasma concentration, Range ([2]; plasma) | further results
1 | C[C@]12C=CC(=O)C=C1C(CSC[C@H](N)C(=O)O)C[C@@H]1[C@@H]2CC[C@]2(C)C(=O)CC[C@@H]12 (single isomer, unassigned) [6-EXE-cys, 6-methylcysteinylandrosta-1,4-diene-3,17-dione] | 3.3 to 50000 pM |  |  |  |  |  |  | Share of the total mean cysteine conjugate levels in urine ([1]; female, human, in vivo): 77%; Share of the total mean cysteine conjugate levels in plasma ([2]; female, human, in vivo): 79%
2 | C[C@]12CC[C@H]3[C@@H](CC(CSC[C@H](N)C(=O)O)C4=CC(=O)C=C[C@@]43C)[C@@H]1CC[C@@H]2O (stereo partly drawn) [6-17β-DHE-cys, 6-methylcysteinylandrosta-1,4-diene-17β-hydroxy-3-one] | 3.3 to 10000 pM |  |  |  |  |  |  | 
3 | CSc1ncnc2c1ncn2[C@@H]1O[C@H](CO)[C@@H](O)[C@H]1O [6-methylmercaptopurine riboside] |  |  |  |  |  |  |  | Fold lower levels in GSTM1-null genotype than in carriers of one or two copies of GSTM1 [3]: 2 fold
4 | C=C1CC2C(CCC3(C)C(O)CCC23)C2(C)C=CC(=O)C=C12 (stereo not drawn) [17β-DHE, 17β-dihydro-EXE] |  | 0.14% and 0.14 ± 0.025% | 0.0066 nmol/mg creatinine and 0.0066 ± 0.0012 nmol/mg creatinine | 0–0.099 nmol/mg creatinine | 12% and 12 ± 1.2% | 2.5 nM and 2.5 ± 0.19 nM | 0.11 to 14 nM | Fold lower average percentage of TEM than 17β-DHE-Gluc ([2]; plasma): 3 fold; Increase in plasma level with increasing numbers of the UGT2B17 deletion allele ([4]; same women taking EXE): 1.3 fold
5 | C=C1C[C@H]2[C@@H]3CC[C@H](O[C@@H]4O[C@H](C(=O)O)[C@@H](O)[C@H](O)[C@H]4O)[C@@]3(C)CC[C@@H]2[C@@]2(C)C=CC(=O)C=C12 [17β-DHE-Gluc, 17β-hydroxy-EXE-17-O-β-D-glucuronide] |  | 21% and 21 ± 1.6% | 1.4 nmol/mg creatinine and 1.4 ± 0.37 nmol/mg creatinine | 0.0068–45 nmol/mg creatinine | 36% and 36 ± 1.8% | 30 nM and 30 ± 4.6 nM | 0.32 to 358 nM | Ratio of mean combined cysteine conjugates (6-EXE-cys plus 6-17β-DHE-cys) to 17β-DHE-Gluc in urine ([1]; urine, 17β-DHE-Gluc is the lower): 5.5 fold; Decrease in plasma level with increasing numbers of the UGT2B17 deletion allele ([4]; women taking EXE): up to 29 fold
6 | C=C1C[C@@H]2[C@H](CC[C@]3(C)C(=O)CC[C@@H]23)[C@@]2(C)C=CC(=O)C=C12 [EXE, Exemestane] |  | 1.7% and 1.7 ± 0.20% | 0.21 ± 0.045 nmol/mg creatinine | 0–3.2 nmol/mg creatinine | 17% and 17 ± 0.91% | 14 nM and 14 ± 1.7 nM | 0 to 105 nM | 
